Test results as given in article PMC12974487, “Inhibition of FicD-mediated AMPylation and deAMPylation by isoprenoid diphosphates” (Proceedings of the National Academy of Sciences of the …, 2026).
Substitutions are numbered along the chain they refer to.

Legend:
FicD^R374H = molecular target: T1, FicD^R374H (Homo sapiens, UniProt Q9BVA6, R374H); assay: DSF with FicD^R374H variant; type: binding
T1 construct: Wild-type FicD (residues 105-458) and all mutants were expressed as N-terminal 6xHis-Sumo fusions; 6xHis-Sumo (N, cleaved yes); made in house; host or cells: Rosetta(DE3) E. coli
T1 sequence (Q9BVA6 105-458 R374H): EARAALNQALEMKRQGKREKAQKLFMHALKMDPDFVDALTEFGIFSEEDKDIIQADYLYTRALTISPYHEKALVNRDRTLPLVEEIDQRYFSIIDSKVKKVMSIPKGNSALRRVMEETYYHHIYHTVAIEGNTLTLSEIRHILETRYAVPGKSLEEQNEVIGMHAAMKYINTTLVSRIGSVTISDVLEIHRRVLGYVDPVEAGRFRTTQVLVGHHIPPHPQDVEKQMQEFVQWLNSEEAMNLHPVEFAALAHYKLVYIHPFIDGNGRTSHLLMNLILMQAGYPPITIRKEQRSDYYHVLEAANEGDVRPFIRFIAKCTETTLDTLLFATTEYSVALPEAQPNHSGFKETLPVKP

FicD^WT = molecular target: T2, FicD^WT (Homo sapiens, UniProt Q9BVA6); assay: Total (intact) mass analysis of FicD^WT incubated with FPP; settings: 50uM FPP, 5mM MgCl2
T2 construct: soluble ER luminal domain (residues 105 to 458) of wild-type human FicD; 6xHis-Sumo (N, cleaved yes); made in house; host or cells: Rosetta(DE3) E. coli
T2 sequence (Q9BVA6 105-458): T1 sequence (Q9BVA6 105-458 R374H) with H270R
From the text: To reveal the mechanism of FicD inhibition by FPP, we leveraged the FicD^E234G mutant for structural studies. We soaked FPP into crystals of the FicD^E234G variant and solved the ligand-bound structure (Fig. 5 A and B). […] The diphosphate group of FPP closely overlapped with the ADP diphosphate when superimposed with a FicD^E234G-ADP structure (Fig. 5 A, Left), and the hydrophobic isoprenyl groups of FPP overlap with the nucleoside in the active site binding pocket (Fig. 5 A, Right). The FPP diphosphate binds directly to the side chains of N369, R371, with the sidechain of D367 coordinating the Mg^2+ (Fig. 5B). These interactions mimic those observed between ADP/ATP and FicD ([26]). […] As previously noted, only GPP and FPP could bind to and inhibit FicD, but analogs of the isoprenoid-pyrophosphate metabolites (geraniol, GMP, farnesol, FMP, DMAPP, and MVAPP) could not (Fig. 2 B–D). Together, these observations indicate both the pyrophosphate head and the long isoprenoid tail of GPP/FPP contribute to the binding with FicD. […]
Intact mass analysis of proteins was performed by the UT Southwestern Proteomics Core. Intact protein samples were analyzed by LC/MS, using a Sciex X500B QTOF mass spectrometer operating in positive ion mode, coupled to an Agilent 1290 Infinity II HPLC. […]

CC(C)=CCC/C(C)=C/CC/C(C)=C/COP(=O)(O)OP(=O)(O)O [FPP, farnesyl-pyrophosphate]
binding to R374H variant by DSF (melting curve shift) (FicD^R374H; absence of Mg2+): caused shifts in the melting curves
binding to R374H variant by DSF (melting curve shift) (FicD^R374H; addition of Mg2+): enhanced the binding
mass shift associated with putative FPP automodification (FicD^WT): no mass shift
